Starred links: 1 amine or outer side, 2 acyl side, 3 side chain; linkers in the order of their positions; H or OH if unused. Positions of bridges follow the written chain, without caps; N, C: chain ends. Non-standard residues stand in square brackets, D forms with d. Residues, ends and D or L forms follow the SMILES beside them. *: point of attachment. X1 = CC[C@H](C)[C@@H](N[*:1])[C@@H](O)CC(=O)O[C@H](C(=O)[C@H](C)C(=O)[*:2])C(C)C; NMeY = CN[C@@H](Cc1ccc(O)cc1)C(=O)O; dNMeL = CN[C@H](CC(C)C)C(=O)O; Pyruvoyl = CC(=O)C(=O)*
Columns and labels:
[1] = system: LOX-IMVI human melanoma xenograft; assay: Aplidine with sorafenib, LOX-IMVI xenograft in athymic nude mice (Example 7); type: in vivo; details: for % Inhibition G2: aplidine 0.06 mg/kg/day; for antitumor activity as single agent (monotherapy): doses tested; for % Inhibition G4: sorafenib 30 mg/kg/day; for % Inhibition G3: sorafenib 60 mg/kg/day
From the text: Female athymic nude mice (Harlan Sprague Dawley, Madison, Wis.) were utilized for all experiments. Mice were implanted with a tumor fragment when mice were 6-8 weeks of age. Animals were housed in ventilated rack caging with food and water ad libitum. The mice were acclimated for at least 5 days prior to tumor implantation.
The tumor model used in this study was LOX-IMVI, which is a human melanoma cell line obtained from the Department of Developmental Therapeutics, National Cancer Institute (NCI). Animals were implanted subcutaneously (SC) on the right flank, using a 13 gauge trocar, with 2 mm^3 of tissue tumor fragments of LOX-IMVI, from an in vivo transplantable line passage 1, using sterile Earle's Balanced Salt solution as a wetting agent.
Tumor measurements were determined as disclosed in Example 1. When tumor growth was within an average size range of 130±44 mg (mean±SD), mice were randomized into the treatment and control groups based on tumor weight by using LabCat® In Life module V 8.0 SP1 tumor tracking and measurement software.
The treatment of LOX-IMVI-tumor-bearing mice was initiated on DPI (Day Post Implantation) 11. Body weights were recorded on treatment days and when tumor sizes were measured. In those days wherein the two drugs were administered the same day, the combination therapy groups were treated by co-administering the two drugs at the same time, with no attempt to sequence the treatments.
(§1) Aplidine was provided in the form of vials of lyophilized aplidine powder which was reconstituted in Cremophor EL/ethanol/water (CEW) 15/15/70 to a concentration of 0.5 mg/ml. The aplidine solution in CEW was diluted in 0.9% Saline to the dosing formulation concentrations, being the final proportion of CEW of 0.18/0.18/0.84.
(§2) Tumor size measurements were recorded twice weekly from the treatment initiation until the termination of the study.
(§3) Mean, standard deviation and standard error of the mean were determined for tumor volume for all animal groups at all assessments. Student's t test was performed on tumor volumes at each measurement day, including at the end of the study, to determine whether there were any statistically significant differences between combination treatment groups and single monotherapy treatment groups.
The definition and criteria for the evaluation of potentiation and the degree of additivity for the combination therapy were the same as those disclose in Example 1.

[2] = system: CAKI-1 human renal tumor xenograft; assay: Aplidine with sorafenib, CAKI-1 xenograft in athymic nude mice (Example 1); type: in vivo
Method: Female athymic nude mice (Harlan Sprague Dawley, Madison, Wis.) were utilized for all experiments. Mice were implanted with tumor fragments or a cell suspension when mice were 5 weeks of age. Animals were housed in ventilated rack caging, 5 mice per cage, with food and water ad libitum. The mice were acclimated for 1 week prior to being implanted with tumor fragments or cell suspensions.
Tumor measurements were determined by using Vernier calipers. The formula to calculate volume for a prolate ellipsoid was used to estimate tumor volume (mm^3) from 2-dimensional tumor measurements: Tumor volume (mm^3)=[L×W^2]÷2, where L is the length and it is the longest diameter in mm, and W is the width and it is the shortest diameter in mm of a tumor. Assuming unit density, volume was converted to weight (i.e., 1 mm^3=1 mg).
Body weights were recorded on treatment days and when tumor sizes were measured. In those days wherein the two drugs were administered the same day, the combination therapy groups were treated by co-administering the two drugs at the same time, with no attempt to sequence the treatments.
as §1, with “Then the” for “The”
as §2, §3
Determine the % of tumor growth inhibition, as 100−% T/C, for each of the drugs administered as monotherapy at the doses used in the combinations. % T/C was obtained by comparing the mean tumor weight in the treatment groups (T) to the mean tumor weight in the control group (C) (T/C×100%). • 2. The two scores were added together to determine the “expected response” if each agent produced the same response as it did when administered as monotherapy. • 3. This “expected response” was subtracted from the % of tumor growth inhibition determined for the combination therapy group: • a. A negative number meant that the effect of combining the two drugs was less than additive. • b. If the resulting number was close to zero, the effect of combining the two drugs was determined as additive. • c.

[3] = G2: aplidine 0.060 mg/kg/day IP
[4] = aplidine 0.040 and/or sorafenib 30 mg/kg/day
[5] = aplidine 0.060 and/or sorafenib 60 mg/kg/day

CC[C@H](C)[C@H]1NC(=O)[C@@H](NC(=O)[C@@H](CC(C)C)N(C)C(=O)[C@@H]2CCCN2C(=O)C(C)=O)[C@@H](C)OC(=O)[C@H](Cc2ccc(OC)cc2)N(C)C(=O)[C@@H]2CCCN2C(=O)[C@H](CC(C)C)NC(=O)[C@@H](C)C(=O)[C@H](C(C)C)OC(=O)C[C@@H]1O [aplidine, dehydrodidemnin B] (Pyruvoyl-P[dNMeL]T[X1]LP[NMeY](Me); ester 3-C)
% T/C on day 11 [1, 3]: 102.9%
% T/C on day 14 [1, 3]: 82.9%
% T/C on day 18 [1, 3]: 79.3%
% T/C on day 20 [1, 3]: 98.5%
% T/C on day 22 [1, 3]: 102.0%
% T/C on day 25 [1, 3]: 105.4%
% Inhibition G2 ([1]; day 11): −2.9%
% Inhibition G2 ([1]; day 14): 17.1%
% Inhibition G2 ([1]; day 18): 20.7%
% Inhibition G2 ([1]; day 20): 1.5%
% Inhibition G2 ([1]; day 22): −2.0%
% Inhibition G2 ([1]; day 25): −5.4%
antitumor activity as single agent (monotherapy) [1]: inactive
% T/C on day 7 [2, 4]: 115.8%
% T/C on day 9 [2, 4]: 124.7%
% T/C on day 13 [2, 4]: 101.5%
% T/C on day 16 [2, 4]: 108.2%
% T/C on day 21 [2, 4]: 104.9%
% T/C on day 23 [2, 4]: 104.3%
% T/C on day 28 [2, 4]: 104.6%
% T/C on day 31 [2, 4]: 96.8%
% T/C on day 34 [2, 4]: 100.9%
% T/C on day 37 [2, 4]: 108.7%
% T/C on day 41 [2, 4]: 109.5%
% T/C on day 44 [2, 4]: 108.4%
% T/C on day 49 [2, 4]: 104.4%
% T/C on day 7 [2, 5]: 103.9%
% T/C on day 9 [2, 5]: 113.8%
% T/C on day 13 [2, 5]: 101.6%
% T/C on day 16 [2, 5]: 105.7%
% T/C on day 21 [2, 5]: 108.5%
% T/C on day 23 [2, 5]: 109.0%
% T/C on day 28 [2, 5]: 107.5%
% T/C on day 31 [2, 5]: 100.3%
% T/C on day 34 [2, 5]: 101.8%
% T/C on day 37 [2, 5]: 107.7%
% T/C on day 41 [2, 5]: 103.1%
% T/C on day 44 [2, 5]: 99.4%
% T/C on day 49 [2, 5]: 96.5%
antitumor activity as single agent (monotherapy) ([2]; doses and schedules tested): inactive

CNC(=O)c1cc(Oc2ccc(NC(=O)Nc3ccc(Cl)c(C(F)(F)F)c3)cc2)ccn1 [sorafenib]
% T/C on day 11 ([1]; G3: sorafenib 60 mg/kg/day PO): 98.6%
% T/C on day 14 ([1]; G3: sorafenib 60 mg/kg/day PO): 101.2%
% T/C on day 18 ([1]; G3: sorafenib 60 mg/kg/day PO): 77.7%
% T/C on day 20 ([1]; G3: sorafenib 60 mg/kg/day PO): 71.7%
% T/C on day 22 ([1]; G3: sorafenib 60 mg/kg/day PO): 64.8%
% T/C on day 25 ([1]; G3: sorafenib 60 mg/kg/day PO): 73.3%
% T/C on day 14 ([1]; G4: sorafenib 30 mg/kg/day PO): 96.9%
% T/C on day 18 ([1]; G4: sorafenib 30 mg/kg/day PO): 77.4%
% T/C on day 20 ([1]; G4: sorafenib 30 mg/kg/day PO): 75.9%
% T/C on day 22 ([1]; G4: sorafenib 30 mg/kg/day PO): 77.3%
% T/C on day 25 ([1]; G4: sorafenib 30 mg/kg/day PO): 93.4%
antitumor activity as single agent (monotherapy) [1]: inactive
% Inhibition G4 ([1]; day 11): −2.1%
% Inhibition G4 ([1]; day 14): 3.1%
% Inhibition G4 ([1]; day 18): 22.6%
% Inhibition G4 ([1]; day 20): 24.1%
% Inhibition G4 ([1]; day 22): 22.7%
% Inhibition G4 ([1]; day 25): 6.6%
% Inhibition G3 ([1]; day 11): 1.4%
% Inhibition G3 ([1]; day 14): −1.2%
% Inhibition G3 ([1]; day 18): 22.3%
% Inhibition G3 ([1]; day 20): 28.3%
% Inhibition G3 ([1]; day 22): 35.2%
% Inhibition G3 ([1]; day 25): 26.7%
% T/C on day 7 [2, 4]: 116.6%
% T/C on day 9 [2, 4]: 130.2%
% T/C on day 13 [2, 4]: 105.4%
% T/C on day 21 [2, 4]: 113.0%
% T/C on day 23 [2, 4]: 117.1%
% T/C on day 28 [2, 4]: 90.3%
% T/C on day 31 [2, 4]: 84.0%
% T/C on day 34 [2, 4]: 86.0%
% T/C on day 37 [2, 4]: 92.8%
% T/C on day 41 [2, 4]: 98.0%
% T/C on day 44 [2, 4]: 105.8%
% T/C on day 49 [2, 4]: 102.8%
% T/C on day 7 [2, 5]: 100.6%
% T/C on day 9 [2, 5]: 128.9%
% T/C on day 13 [2, 5]: 104.5%
% T/C on day 21 [2, 5]: 121.2%
% T/C on day 23 [2, 5]: 116.6%
% T/C on day 28 [2, 5]: 110.5%
% T/C on day 31 [2, 5]: 105.2%
% T/C on day 34 [2, 5]: 110.2%
% T/C on day 37 [2, 5]: 119.5%
% T/C on day 41 [2, 5]: 120.5%

Source: patent US20110009335A1, “Anticancer Treatments” (priority 2008, published 2011)
